Test results published in patent US8258130B2 (Sanofi, priority 2007, dated 2012).

Assays:
PGDS = conditions: cited from earlier work
guinea pig = guinea pig model; cited from earlier work
rat = rat model; cited from earlier work
human h-PGDS = human h-PGDS (Homo sapiens, UniProt O60760); assay: Enzyme Immunoassay (EIA) method, inhibition of hematopoietic PGD2 synthase; assay type: biochemical; conditions: EIA assay, PGD2 formed from PGH2 by human h-PGDS
Experimental: Assay 2: Enzyme Immunoassay (EIA) Method
• a. Preparation of 0.1M K2HPO4/KH2PO4 buffer (pH 7.4) • Prepare 0.1 M KH2PO4 from 1M KH2PO4 (Sigma, Cat# P-8709) • Prepare 0.1 M K2HPO4 from powder of K2HPO4 (Fisher, BP363-500) • Mix 0.1 M K2HPO4 with 0.1 M KH2PO4 to adjust pH to 7.4. • b. Preparation of 0.5% γ-globulin • Add 0.1 g of γ-globulin (Sigma, Cat# G-5009) to 20 mL 0.1 M K2HPO4/KH2PO4 buffer (pH 7.4) and make 1-mL/vial aliquots and store in −80° C. • c. Preparation of 100 mM GSH • Add 307 mg of GSH (Sigma, Cat# G-6529) to 10 mL 0.1 M K2HPO4/KH2PO4 buffer (pH 7.4) and store at −80° C. • d. Preparation of Reaction buffer: • 198 mL of 0.1M K2HPO4/KH2PO4 buffer (pH 7.4) • 2 mM GSH—Prepared from 100 mM GSH • 0.4 g Glycerol • 2 mL of 0.5% γ-globulin • Add 0.4 g of glycerol and 2 mL of 0.5% γ-globulin to 198 mL of 0.1 M K2HPO4/KH2PO4 • buffer (pH7.4). • Add 0.4 mL of 100 mM GSH to 19.6 mL reaction buffer before the assay (enough for two 96-well plates). • e. Preparation of FeCl2/citric acid stopping solution: (8 mg/mL FeCl2, 0.1 M citric acid) • Add 40 mg fresh FeCl2 (IGN, Cat# 158046) to 5 mL 0.1 M citric acid (Sigma, Cat# C0759). • f. Preparation of MOX reagent: • 10% EtOH—Add 1 mL of EtOH to 9 mL of ultra pure H2O • Dissolve 0.1 g of methoxyl amine (Cayman, Cat# 400036/) in 10% EtOH (10 mL). • Add 0.82 g of sodium acetate (Cayman, Cat#400037) to MOX solution and dissolve. II. Materials and Method • Dimethylsulfoxide (DMSO; Sigma; Cat# D2650) • Prostaglandin D2-MOX express EIA kit (Caymen Chemical, Catalog No. 500151)
Before the assay, cool down 10 mL of acetone in polypropylene tubes and empty 96 well plates in ice. All the procedures except compound dilution are performed on ice.
• 1. Dilute compound in DMSO
• 2. Dilute 2 μL of each above concentration of compound to 38 μL of reaction buffer in 96-well plates and mix. IV. Enzyme and Substrate Solution Preparation • 1 Preparation of 0.39 ng/μL enzyme solution (0.35 ng/μL at final after compound addition). • Mix 4 μL of 4 mg/mL human h-PGDS with 396 μL of reaction buffer (to give enzyme concentration 40 μg/mL). Add 46.8 μL of 40 μg/mL h-PGDS to 4.753 mL of reaction buffer to give a total volume of 4.8 mL • 2. Preparation of Substrate Solution (PGH2): Add 0.375 mL of 0.1 mg/mL of PGH2 to 1.625 mL acetone. V. Enzyme Reaction: • 1. Add 60 μL of enzyme solution to compound well and positive control (without compound) in U-bottom polypropylene plate on ice. • 2. Add 60 μL of reaction buffer and 6.6 μL of 5% DMSO in reaction buffer into negative control wells in the plate. • 3. Add 6.6 μL of diluted compound in reaction buffer to the compound wells and mix. • 4. Add 6.6 μL of 5% DMSO in reaction buffer to the positive control well. • 5. Incubate the plate in ice for at least 30 min. • 6. Add 20 μL of substrate (PGH2) solution to compound, negative and positive control wells in the U-bottom 96 well plate on ice. • 7. Dry the plate in cold room for about 25-28 min. • 8. Pipette 45 μL of enzyme solution (above) into 96-wells with dried PGH2 and mix 3 times. Incubate on the ice for 1 min. • 9. Add 45 μL of FeCl2 solution into each wells and mix. • 10. Add 90 μL of MOX solution and mix. • 11. Incubate for 30 min at 60° C. • 12. Dilute the samples 2500× with EIA buffer. VI. EIA Assay • Perform the assay according to the procedure in EIA kit provided by Cayman. Total PGD2 levels (pg/mL) were determined in the samples by EIA kits (Caymen Chemical, Catalog No. 500151) Calculate Amount of PGD2 as Below • Calculated % Positive control according to the equation below; % Positive control=(Compound value−Negative control)/(Positive value−Negative control value)×100. […]

Chain of human h-PGDS (O60760 whole entry): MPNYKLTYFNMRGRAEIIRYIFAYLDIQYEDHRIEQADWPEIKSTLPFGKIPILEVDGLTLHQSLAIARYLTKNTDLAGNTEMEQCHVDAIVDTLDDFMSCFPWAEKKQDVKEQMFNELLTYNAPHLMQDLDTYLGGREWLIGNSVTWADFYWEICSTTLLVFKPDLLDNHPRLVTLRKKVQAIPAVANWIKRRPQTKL

| Compound | IC50 (human h-PGDS) [nM] | further results |
| --- | --- | --- |
| c1ccc(C(OC2CCN(CCCc3nn[nH]n3)CC2)c2ccccc2)cc1 [HQL-79] | – | PGDS inhibition (PGDS): weak PGDS inhibitor; antiasthmatic effect (guinea pig): antiasthmatic; antiasthmatic effect (rat): antiasthmatic |
| O=C(NN1CCN(CCO)CC1)c1cnc(C(=O)c2ccccc2)nc1 [Example 51, 2-Benzoyl-pyrimidine-5-carboxylic acid [4-(2-hydroxy-ethyl)-piperazin-1-yl]-amide] | 665 | – |
| Cc1nc(-c2cccc(F)c2)ncc1C(=O)Nn1ccc2ccncc21 [Example 128, 2-(3-Fluoro-phenyl)-4-methyl-pyrimidine-5-carboxylic acid pyrrolo[2,3-c]pyridin-1-ylamide] | 28.5 | – |
| O=C(NN1CCN(C2CCOC2=O)CC1)c1cnc(-c2ccccc2)nc1 (stereo not shown) [Example 87, 2-Phenyl-pyrimidine-5-carboxylic acid [4-(2-oxo-tetrahydro-furan-3-yl)-piperazin-1-yl]-amide] | 26 | – |

Continued, in another order:

| IC50 (human h-PGDS) [nM] | Compound | further results |
| --- | --- | --- |
| 12 | Cc1nc(-c2cccc(F)c2)ncc1C(=O)Nn1ccc2cccnc21 [Example 122, 2-(3-Fluoro-phenyl)-4-methyl-pyrimidine-5-carboxylic acid pyrrolo[2,3-b]pyridin-1-ylamide] | – |
| 10 | Cc1cn(NC(=O)c2cnc(-c3cccnc3)nc2)c2ccc(F)cc12 [Example 6, 2-Pyridin-3-yl-pyrimidine-5-carboxylic acid (5-fluoro-3-methyl-indol-1-yl)-amide] | – |
| 23 | Cc1nc(-c2cccc(F)c2)ncc1C(=O)NN1CCc2ccccc21 [Example 106, 2-(3-Fluoro-phenyl)-4-methyl-pyrimidine-5-carboxylic acid (2,3-dihydro-indol-1-yl)-amide] | – |
| 12 | O=C(NN1CCOc2ccc(F)cc21)c1cnc(-c2cccc(F)c2)nc1 [Example 211, 2-(3-Fluoro-phenyl)-pyrimidine-5-carboxylic acid (6-fluoro-2,3-dihydro-1,4-benzoxazin-4-yl)-amide] | – |
